Legend:
[1] = molecular target: PDE10A enzyme (Homo sapiens (Human), UniProt Q9Y233); assay: PDE10A inhibition assay; type: biochemical
Procedure: Active PDE10A enzyme is prepared in a number of ways for use in PDE assays (Loughney, K. et al. Gene 1999, 234, 109-117; Fujishige, K. et al. Eur J Biochem. 1999, 266, 1118-1127 and Soderling, S. et al. Proc. Natl. Acad. Sci. 1999, 96, 7071-7076). PDE10A can be expressed as full-length proteins or as truncated proteins, as long as they express the catalytic domain. PDE10A can be prepared in different cell types, for example insect cells or E. coli. […]
A PDE10A assay may for example, be performed as follows: The assay is performed in 60 uL samples containing a fixed amount of the relevant PDE enzyme (sufficient to convert 20-25% of the cyclic nucleotide substrate), a buffer (50 mM HEPES7.6; 10 mM MgCl2; 0.02% Tween20), 0.1 mg/ml BSA, 225 pCi of ^3H-labelled cyclic nucleotide substrate, tritium labeled cAMP to a final concentration of 5 nM and varying amounts of inhibitors. […] The beads are allowed to settle for one hr in the dark before the plates are counted in a Wallac 1450 Microbeta counter. The measured signal can be converted to activity relative to an uninhibited control (100%) and IC50 values can be calculated using the Xlfit extension to EXCEL.

[2] = rats; cited from earlier work
[3] = rats; cited from earlier work; remark: listed apart in the source
[4] = rats, cited from earlier work

Sequence of PDE10A enzyme (Q9Y233 716-1055): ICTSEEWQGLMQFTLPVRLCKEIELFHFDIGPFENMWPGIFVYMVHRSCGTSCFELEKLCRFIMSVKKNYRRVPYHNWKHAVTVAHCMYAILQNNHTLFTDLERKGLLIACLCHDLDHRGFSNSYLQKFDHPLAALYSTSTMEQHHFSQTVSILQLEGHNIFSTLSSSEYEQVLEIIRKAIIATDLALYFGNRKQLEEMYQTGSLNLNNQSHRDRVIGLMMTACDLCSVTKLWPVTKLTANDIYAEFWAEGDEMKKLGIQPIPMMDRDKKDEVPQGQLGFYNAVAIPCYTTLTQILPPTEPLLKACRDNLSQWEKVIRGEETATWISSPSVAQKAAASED

Row | IC50 [1] [nM] | Compound | reduction of amphetamine induced hyperactivity [2] | hyperactivity induced by PCP [3] | catalepsy on its own ([4]; alone) | cataleptic effect of the D2 receptor antagonist haloperidol ([4]; with haloperidol)
1 | 7.4 | Cc1ncc(C)n2nc(CCc3ccc4ccccc4n3)nc12 [2-[2-(5,8-Dimethyl-[1,2,4]triazolo[1,5-a]pyrazin-2-yl)-ethyl]-quinoline] | – | – | – | –
2 | – | COc1ccc(Cc2nccc3cc(OC)c(OC)cc23)cc1OC [Papaverine] | insignificant | reduced hyperactivity | did not cause catalepsy on its own | potentiated the cataleptic effect
